# Article PMC6378217, “The lysyl oxidase like 2/3 enzymatic inhibitor, PXS‐5153A, reduces crosslinks and ameliorates fibrosis” (Journal of Cellular and Molecular Medicine, 2018)
# Assays:
# [1] = biological target: T1, LOXL2 (Homo sapiens, UniProt Q9Y4K0); experiment: Substrate competition (putrescine), LOXL2; type: biochemical; details: increasing concentrations of the substrate
# T1 sequence (Q9Y4K0 26-774): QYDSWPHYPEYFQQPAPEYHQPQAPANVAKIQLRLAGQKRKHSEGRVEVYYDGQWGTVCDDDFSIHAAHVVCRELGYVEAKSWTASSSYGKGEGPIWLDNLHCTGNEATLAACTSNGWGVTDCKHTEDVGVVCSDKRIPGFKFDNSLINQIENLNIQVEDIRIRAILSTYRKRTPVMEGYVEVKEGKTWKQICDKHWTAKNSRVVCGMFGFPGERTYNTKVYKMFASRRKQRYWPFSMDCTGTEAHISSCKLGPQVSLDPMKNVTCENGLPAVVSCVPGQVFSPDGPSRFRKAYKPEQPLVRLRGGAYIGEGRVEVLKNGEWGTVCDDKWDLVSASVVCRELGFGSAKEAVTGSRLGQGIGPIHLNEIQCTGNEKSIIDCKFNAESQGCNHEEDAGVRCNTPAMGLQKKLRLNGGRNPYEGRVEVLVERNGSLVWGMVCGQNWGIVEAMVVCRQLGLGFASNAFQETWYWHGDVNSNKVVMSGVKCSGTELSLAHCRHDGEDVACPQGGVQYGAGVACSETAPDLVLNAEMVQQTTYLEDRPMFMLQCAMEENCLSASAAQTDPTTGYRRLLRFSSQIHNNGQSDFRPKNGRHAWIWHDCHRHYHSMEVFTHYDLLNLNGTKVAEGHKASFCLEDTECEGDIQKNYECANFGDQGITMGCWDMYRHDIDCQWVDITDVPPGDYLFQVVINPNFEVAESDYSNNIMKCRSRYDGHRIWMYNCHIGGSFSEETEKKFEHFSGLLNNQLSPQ
# Method: (§1) The measurement of the enzymatic activity of all lysyl oxidase family members was based on the detection of hydrogen peroxide with an Amplex-Red oxidation assay, as described in Zhou et al.[1]; miniaturised in 384 well format, with the appropriate combination of substrate and assay buffer for each individual enzyme. After a 30 minute pre-incubation of the enzyme at 37 °C with the test compound (or with different incubation times for the time-dependency assay), one volume of reaction mixture containing 120 μM Amplex Red (AR) (Life Technologies), 1.5 U/mL horseradish peroxidase (HRP) (Sigma-Aldrich) and the specific substrate was added to each sample. The relative fluorescence units (RFU) were then measured every 2.5 minutes for 30 minutes at 37°C, excitation 565 nm and emission 590, on a BMG Clariostar Microplate Reader. All the substrates were used at concentrations corresponding to their Km towards the corresponding enzyme, or with a range of different concentrations for the substrate competition experiments.
# The measurement of substrate competition was based on the release of hydrogen peroxide as previously described. The target enzyme was incubated with the inhibitor, and differing concentrations of the substrate (putrescine) in reaction mixture and measured.
# [2] = tested on: Sodium Channel, Site 2; experiment: Eurofins Hit Profiling Screen; type: binding; details: 10 μmol/L
# [3] = biological target: Dopamine D1 (Homo sapiens, UniProt P21728); experiment: Eurofins Hit Profiling Screen; type: binding; details: 10 μmol/L
# [4] = tested on: Glutamate, NMDA, Phencyclidine; experiment: Eurofins Hit Profiling Screen; type: binding; details: 10 μmol/L
# [5] = biological target: Recombinant human semicarbazide sensitive amine oxidase (SSAO/VAP1) (Homo sapiens, UniProt Q16853); experiment: SSAO/VAP1 enzymatic activity assay; type: biochemical
# Method: (§2) The measurement of the enzymatic activity of all lysyl oxidase family members was based on the detection of hydrogen peroxide with an Amplex‐Red oxidation assay, as described in Zhou et al26 Recombinant human semicarbazide sensitive amine oxidase (SSAO/VAP1), diamine oxidase (DAO) and monoamine oxidases A and B (MAO‐A and MAO‐B) assays were performed as previously described.27 For detailed enzymatic procedures, see supporting information.
# Recombinant human semicarbazide sensitive amine oxidase (SSAO/VAP1), diamine oxidase (DAO) and monoamine oxidases A and B (MAO-A and MAO-B) assays were performed as previously described.
# [6] = biological target: Muscarinic M3 (Homo sapiens, UniProt P20309); experiment: Eurofins Hit Profiling Screen; type: binding; details: 10 μmol/L
# [7] = biological target: Sigma σ1 (Homo sapiens, UniProt Q99720); experiment: Eurofins Hit Profiling Screen; type: binding; details: 10 μmol/L
# [8] = biological target: Potassium Channel hERG (Homo sapiens, UniProt Q12809); experiment: Eurofins Hit Profiling Screen; type: binding; details: 10 μmol/L
# [9] = biological target: Adrenergic α1B (Rattus norvegicus, UniProt P15823); experiment: Eurofins Hit Profiling Screen; type: binding; details: 10 μmol/L
# [10] = biological target: Opiate μ (OP3, MOP) (Homo sapiens, UniProt P35372); experiment: Eurofins Hit Profiling Screen; type: binding; details: 10 μmol/L
# [11] = biological target: T2, Recombinant rat LOXL2 (Rattus norvegicus, UniProt B5DF27); experiment: Amplex-Red fluorometric enzymatic activity assay, recombinant rat LOXL2; type: biochemical; details: 30 minute pre-incubation; average of at least three experiments
# T2 construct: made in house; host or cells: HEK-293 clones provided by Dr. Fernando Rodríguez Pascual
# Method: as §2
# as §1, with “All the substrates were used at concentrations corresponding to their Km towards the corresponding enzyme, or with a range of different concentrations for the substrate competition experiments.” left out
# [12] = biological target: Muscarinic M2 (Homo sapiens, UniProt P08172); experiment: Eurofins Hit Profiling Screen; type: binding; details: 10 μmol/L
# [13] = tested on: GABAA, Flunitrazepam, Central; experiment: Eurofins Hit Profiling Screen; type: binding; details: 10 μmol/L
# T2 sequence (B5DF27 26-776): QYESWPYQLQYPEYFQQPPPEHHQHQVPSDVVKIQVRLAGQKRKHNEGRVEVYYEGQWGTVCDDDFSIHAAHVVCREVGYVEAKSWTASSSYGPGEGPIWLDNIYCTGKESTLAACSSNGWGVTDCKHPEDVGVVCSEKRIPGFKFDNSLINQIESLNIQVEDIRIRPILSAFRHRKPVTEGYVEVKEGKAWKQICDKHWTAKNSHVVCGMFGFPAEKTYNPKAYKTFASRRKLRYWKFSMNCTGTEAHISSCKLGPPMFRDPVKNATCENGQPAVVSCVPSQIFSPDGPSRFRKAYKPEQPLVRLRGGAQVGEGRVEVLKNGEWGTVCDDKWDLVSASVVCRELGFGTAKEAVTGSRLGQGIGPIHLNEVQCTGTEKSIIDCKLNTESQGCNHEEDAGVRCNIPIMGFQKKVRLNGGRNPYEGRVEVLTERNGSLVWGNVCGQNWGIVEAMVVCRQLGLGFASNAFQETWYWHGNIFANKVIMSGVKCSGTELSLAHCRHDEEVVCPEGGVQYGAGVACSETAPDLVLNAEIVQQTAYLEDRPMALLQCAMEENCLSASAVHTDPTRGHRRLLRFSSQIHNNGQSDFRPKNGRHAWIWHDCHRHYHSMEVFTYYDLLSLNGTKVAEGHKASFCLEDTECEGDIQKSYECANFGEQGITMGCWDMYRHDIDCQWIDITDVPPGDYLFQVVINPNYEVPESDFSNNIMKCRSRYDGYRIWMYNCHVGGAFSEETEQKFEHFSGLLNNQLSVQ
# Chain of Adrenergic α1B (P15823 whole entry): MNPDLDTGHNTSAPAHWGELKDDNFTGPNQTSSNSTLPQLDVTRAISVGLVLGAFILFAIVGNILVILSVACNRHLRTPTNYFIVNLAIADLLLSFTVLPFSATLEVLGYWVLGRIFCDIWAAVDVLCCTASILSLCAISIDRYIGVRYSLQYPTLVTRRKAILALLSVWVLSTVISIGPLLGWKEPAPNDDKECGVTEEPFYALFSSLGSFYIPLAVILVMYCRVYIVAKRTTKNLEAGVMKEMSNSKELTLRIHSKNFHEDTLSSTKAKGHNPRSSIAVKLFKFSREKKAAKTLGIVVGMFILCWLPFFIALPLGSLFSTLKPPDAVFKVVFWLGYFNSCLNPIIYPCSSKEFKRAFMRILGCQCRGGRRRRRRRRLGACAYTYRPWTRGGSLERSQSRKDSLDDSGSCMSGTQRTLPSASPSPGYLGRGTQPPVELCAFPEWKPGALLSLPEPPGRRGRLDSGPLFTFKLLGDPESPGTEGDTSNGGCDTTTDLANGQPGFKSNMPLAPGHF
# Chain of Sigma σ1 (Q99720 whole entry): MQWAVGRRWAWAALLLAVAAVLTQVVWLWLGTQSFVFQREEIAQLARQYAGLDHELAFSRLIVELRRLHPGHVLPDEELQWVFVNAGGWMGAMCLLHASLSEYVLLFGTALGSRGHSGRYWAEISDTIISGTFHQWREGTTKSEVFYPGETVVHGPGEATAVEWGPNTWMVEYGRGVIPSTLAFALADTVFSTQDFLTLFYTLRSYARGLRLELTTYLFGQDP
# Chain of Muscarinic M3 (P20309 whole entry): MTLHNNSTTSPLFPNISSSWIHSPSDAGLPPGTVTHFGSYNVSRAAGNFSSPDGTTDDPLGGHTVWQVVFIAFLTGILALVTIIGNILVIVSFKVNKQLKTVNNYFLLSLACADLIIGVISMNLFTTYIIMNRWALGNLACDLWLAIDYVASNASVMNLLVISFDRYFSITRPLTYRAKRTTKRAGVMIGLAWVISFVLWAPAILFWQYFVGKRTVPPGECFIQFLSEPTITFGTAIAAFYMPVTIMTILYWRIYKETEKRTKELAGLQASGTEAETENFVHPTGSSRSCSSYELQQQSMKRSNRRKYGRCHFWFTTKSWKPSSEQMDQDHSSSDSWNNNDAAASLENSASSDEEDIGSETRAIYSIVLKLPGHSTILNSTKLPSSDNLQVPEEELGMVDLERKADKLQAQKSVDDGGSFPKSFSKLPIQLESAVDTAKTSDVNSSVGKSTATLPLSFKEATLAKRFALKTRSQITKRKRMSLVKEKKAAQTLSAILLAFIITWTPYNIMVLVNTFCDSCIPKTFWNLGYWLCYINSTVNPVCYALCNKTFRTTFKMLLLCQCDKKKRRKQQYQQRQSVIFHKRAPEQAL
# Chain of Recombinant human semicarbazide sensitive amine oxidase (SSAO/VAP1) (Q16853 whole entry): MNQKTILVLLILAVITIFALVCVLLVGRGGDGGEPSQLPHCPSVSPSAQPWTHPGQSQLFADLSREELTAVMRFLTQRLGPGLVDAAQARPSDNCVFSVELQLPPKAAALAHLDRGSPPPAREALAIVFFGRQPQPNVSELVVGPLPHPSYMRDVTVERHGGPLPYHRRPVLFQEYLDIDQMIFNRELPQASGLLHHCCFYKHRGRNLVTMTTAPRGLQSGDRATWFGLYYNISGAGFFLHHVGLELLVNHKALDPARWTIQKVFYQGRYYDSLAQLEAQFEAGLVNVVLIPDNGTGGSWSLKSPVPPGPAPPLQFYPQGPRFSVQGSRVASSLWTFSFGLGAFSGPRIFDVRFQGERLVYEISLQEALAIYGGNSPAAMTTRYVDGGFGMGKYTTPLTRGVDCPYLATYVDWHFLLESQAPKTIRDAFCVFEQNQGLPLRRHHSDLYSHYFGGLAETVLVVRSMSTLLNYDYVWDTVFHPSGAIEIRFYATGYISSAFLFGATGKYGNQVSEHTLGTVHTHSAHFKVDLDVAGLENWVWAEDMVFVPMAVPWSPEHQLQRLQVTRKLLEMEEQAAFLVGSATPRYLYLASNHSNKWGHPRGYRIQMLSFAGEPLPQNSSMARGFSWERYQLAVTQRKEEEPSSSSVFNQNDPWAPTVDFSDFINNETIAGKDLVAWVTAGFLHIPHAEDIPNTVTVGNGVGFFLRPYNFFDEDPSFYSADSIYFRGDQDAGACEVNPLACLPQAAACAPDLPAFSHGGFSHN
# Chain of Dopamine D1 (P21728 whole entry): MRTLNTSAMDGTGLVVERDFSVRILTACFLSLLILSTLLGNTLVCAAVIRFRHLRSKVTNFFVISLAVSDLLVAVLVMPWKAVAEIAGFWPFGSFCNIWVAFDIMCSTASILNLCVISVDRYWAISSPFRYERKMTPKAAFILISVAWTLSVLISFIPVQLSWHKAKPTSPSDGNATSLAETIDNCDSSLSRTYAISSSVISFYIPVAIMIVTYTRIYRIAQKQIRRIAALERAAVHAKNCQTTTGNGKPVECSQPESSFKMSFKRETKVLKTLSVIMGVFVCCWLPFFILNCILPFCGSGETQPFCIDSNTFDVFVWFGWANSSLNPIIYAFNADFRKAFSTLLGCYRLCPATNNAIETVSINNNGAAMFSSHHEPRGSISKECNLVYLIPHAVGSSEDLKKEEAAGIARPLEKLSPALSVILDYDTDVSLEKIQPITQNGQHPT
# Chain of Opiate μ (OP3, MOP) (P35372 whole entry): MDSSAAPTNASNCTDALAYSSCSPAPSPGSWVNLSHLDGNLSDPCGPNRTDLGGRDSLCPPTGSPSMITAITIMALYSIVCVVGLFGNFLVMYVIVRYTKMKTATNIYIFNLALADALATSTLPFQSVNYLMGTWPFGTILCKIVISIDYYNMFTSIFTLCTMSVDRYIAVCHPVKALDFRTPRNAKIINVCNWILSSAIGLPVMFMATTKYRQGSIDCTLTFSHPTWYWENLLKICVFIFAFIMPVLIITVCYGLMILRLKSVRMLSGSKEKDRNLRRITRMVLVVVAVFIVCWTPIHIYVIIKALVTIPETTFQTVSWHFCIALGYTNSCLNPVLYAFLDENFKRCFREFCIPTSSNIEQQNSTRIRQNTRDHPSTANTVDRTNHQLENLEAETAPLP
# Chain of Potassium Channel hERG (Q12809 whole entry): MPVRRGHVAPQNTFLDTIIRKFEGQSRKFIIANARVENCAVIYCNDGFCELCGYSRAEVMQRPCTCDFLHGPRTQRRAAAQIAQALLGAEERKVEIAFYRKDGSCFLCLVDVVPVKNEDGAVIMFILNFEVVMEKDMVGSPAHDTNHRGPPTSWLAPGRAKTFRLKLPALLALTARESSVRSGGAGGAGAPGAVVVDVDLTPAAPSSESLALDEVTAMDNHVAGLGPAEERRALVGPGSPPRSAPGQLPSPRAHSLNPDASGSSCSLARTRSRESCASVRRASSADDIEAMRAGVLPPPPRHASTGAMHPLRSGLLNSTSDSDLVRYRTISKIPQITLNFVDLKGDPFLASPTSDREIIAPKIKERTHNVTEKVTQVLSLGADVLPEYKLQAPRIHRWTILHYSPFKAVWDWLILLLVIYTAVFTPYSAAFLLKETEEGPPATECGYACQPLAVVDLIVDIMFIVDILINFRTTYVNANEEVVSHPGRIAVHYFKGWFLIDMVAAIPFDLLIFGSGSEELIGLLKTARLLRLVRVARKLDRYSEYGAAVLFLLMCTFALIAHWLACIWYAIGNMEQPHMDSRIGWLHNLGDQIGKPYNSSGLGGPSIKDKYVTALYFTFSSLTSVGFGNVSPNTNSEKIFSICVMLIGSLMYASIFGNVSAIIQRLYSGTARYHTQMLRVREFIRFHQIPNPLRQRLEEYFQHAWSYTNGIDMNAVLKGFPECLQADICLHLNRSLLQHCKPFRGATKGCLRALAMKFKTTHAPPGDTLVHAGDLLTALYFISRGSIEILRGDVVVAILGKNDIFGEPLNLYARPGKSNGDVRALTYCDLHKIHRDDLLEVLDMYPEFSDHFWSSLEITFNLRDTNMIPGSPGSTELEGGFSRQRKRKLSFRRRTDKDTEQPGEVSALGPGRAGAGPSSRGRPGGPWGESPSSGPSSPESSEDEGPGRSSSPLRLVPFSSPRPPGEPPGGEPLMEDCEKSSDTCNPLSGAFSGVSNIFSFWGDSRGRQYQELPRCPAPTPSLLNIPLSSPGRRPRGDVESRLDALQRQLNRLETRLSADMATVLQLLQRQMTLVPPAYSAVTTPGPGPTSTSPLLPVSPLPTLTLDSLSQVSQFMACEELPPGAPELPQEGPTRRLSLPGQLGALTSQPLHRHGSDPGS
smiles,measurement,setting,value
Cc1c(-c2cccc(S(=O)(=O)N(C)C)c2)c2ncccc2n1C/C(F)=C/CN.Cl.Cl [PXS-5153A],substrate competition,[1],in a competitive manner
same,% inhibition,[2],57%
same,% inhibition,[3],6%
same,% inhibition,[4],3%
same,IC50,[5],> 30000 nM
same,% inhibition,[6],9%
same,% inhibition,[7],8%
same,% inhibition,[8],47%
same,% inhibition,[9],6%
same,% inhibition,[10],11%
same,IC50,[11],15 nM
same,pIC50 ± SD,[11],7.8 ± 0
same,% inhibition,[12],58%
same,% inhibition,[13],26%
